Test results: patent US8591935B2, “Methods and compositions for treating pain comprising a statin” (Warsaw Orthopedic, Inc., priority 2008, dated 2013)

Key:
[1] = system: chronic constriction injury (CCI) rats; test: Mechanical allodynia: von Frey monofilament test in the chronic constriction injury model; type: in vivo, Wister rats
Method: This model may mimic pain associated with sciatica in humans. Twenty-eight male Wister rats (Charles River Laboratories, Wilmington, Mass.) weighing 300±26 g the day of surgery (Day 1) were used in this study. All experiments were conducted in accordance with the International Association for the Study of Pain guidelines and approved by the Institutional Animal Care and Use Committee at SRI International, Inc (Menlo Park, Calif.). CCI was induced according to the method of Bennett and Xie. Briefly, each animal was anesthetized by intraperitoneal (IP) injection of sodium pentobarbital at a dose of 60 mg/kg. The animal's common sciatic nerve was exposed and freed from adherent tissue at mid-thigh by separating the biceps femoris muscles by blunt dissection. Four loose ligatures were placed 1 mm apart, using chromic gut suture (4-0 absorbable suture; Jorgensen Laboratories, Inc., Loveland, Colo.). Seven animals were randomly assigned to each treatment group. Mechanical allodynia was measured using von Frey monofilaments (Stoelting, Wood Dale, Ill.) with varying stiffness (2.0-15.0 g) on Days −1 (baseline), 8, and 15 as described previously. Animals were placed on a perforated metallic platform and allowed to habituate to their surroundings for a minimum of 15 minutes before testing. The 50% paw withdrawal threshold response was determined by a sequential increasing and/or decreasing of the stimulus strength (the “up-down method” of Dixon). Each filament was applied with enough pressure to cause a buckling effect. Absence of a paw lifting/withdrawal response after 5 seconds prompted the use of the filament of next higher weight. Paw withdrawal indicating a positive response prompted the use of a weaker filament. After the initial response (i.e., paw withdrawal), the testing continued for four additional measurements and was used to calculate the response threshold. Four consecutive positive responses received a score of 0.25 g, and five consecutive negative responses (i.e., no paw withdrawal) received a score of 15 g. The 50% paw withdrawal threshold was calculated using the formula: 10 (Xf+kd)/10,000, where Xf is the final von Frey filament used (log units), k is a value that analyzes the response pattern (taken from the table published by Chaplan et al.), and d is the mean difference between stimuli (log units). The mean and standard error of the mean (SEM) were determined for each treatment group.

[2] = system: chronic constriction injury (CCI) rats; test: Thermal hyperalgesia: paw withdrawal latency to thermal radiant heat (Hargreaves test) in the chronic constriction injury model; type: in vivo, Wister rats
Method: This model may mimic pain associated with sciatica in humans. Twenty-eight male Wister rats (Charles River Laboratories, Wilmington, Mass.) weighing 300±26 g the day of surgery (Day 1) were used in this study. All experiments were conducted in accordance with the International Association for the Study of Pain guidelines and approved by the Institutional Animal Care and Use Committee at SRI International, Inc (Menlo Park, Calif.). CCI was induced according to the method of Bennett and Xie. Briefly, each animal was anesthetized by intraperitoneal (IP) injection of sodium pentobarbital at a dose of 60 mg/kg. The animal's common sciatic nerve was exposed and freed from adherent tissue at mid-thigh by separating the biceps femoris muscles by blunt dissection. Four loose ligatures were placed 1 mm apart, using chromic gut suture (4-0 absorbable suture; Jorgensen Laboratories, Inc., Loveland, Colo.). Seven animals were randomly assigned to each treatment group. […] The radiant infrared heat source stimulus intensity was set to IR50 and the cut-off time was set at 15 seconds. Rats were placed on a glass platform and allowed to habituate to the testing chambers for a minimum of 15 minutes prior to each testing session. The thermal stimulus was applied to the plantar surface of the paw. Thermal thresholds were defined as the latency in seconds at the first pain behavior, which includes paw withdrawal, flinching, biting and/or licking of the stimulated paw. The readings for all animals were averaged and the mean and standard error of the mean (SEM) were determined for each treatment group.

[3] = sulindac 2 mg/kg/day IP for 15 days, CCI rats
[4] = lovastatin 0.3 mg/kg/day IP for 15 days, CCI rats
[5] = lovastatin 3 mg/kg/day IP for 15 days, CCI rats

| SMILES | pain reduction, von Frey paw withdrawal threshold (mechanical stimulation) vs PBS vehicle [1, 3] | pain reduction, von Frey paw withdrawal threshold (mechanical stimulation) vs PBS vehicle ([1]; sulindac 2 mg/kg/day IP, at 8 and 15 days) | pain reduction, paw withdrawal latency to thermal radiant heat vs PBS vehicle [2, 3] | pain reduction, paw withdrawal latency to thermal radiant heat vs PBS vehicle ([2]; sulindac 2 mg/kg/day IP, at 7 and 14 days) | mechanical allodynia pain behavioral response compared with the 0.3 mg/kg/day group ([1]; lovastatin 40 ng/hr group) | pain reduction, von Frey paw withdrawal threshold (mechanical stimulation) vs PBS vehicle [1, 4] | mechanical allodynia pain behavioral response ([1]; lovastatin 0.3 mg/kg/day, all time points) | pain reduction, von Frey paw withdrawal threshold (mechanical stimulation) vs PBS vehicle [1, 5] | pain reduction, von Frey paw withdrawal threshold (mechanical stimulation) vs PBS vehicle ([1]; lovastatin 3 mg/kg/day IP, at day 15) | mechanical allodynia pain response compared with 50:50 DMSO/PBS vehicle control ([1]; lovastatin 0.4 mcg/hr) | thermal hyperalgesia withdrawal score, course over the study ([2]; high dose lovastatin pump group, 0.4 mcg/hr) | thermal hyperalgesia withdrawal score compared with other statin groups ([2]; high dose lovastatin pump group, 0.4 mcg/hr, day 21) | pain reduction, paw withdrawal latency to thermal radiant heat vs PBS vehicle [2, 4] | thermal withdrawal time as % of per-operative baseline ([2]; lovastatin 0.3 mg/kg/day IP, Day 7) | thermal hyperalgesia pain behavioral response vs 50:50 DMSO/PBS vehicle ([2]; lovastatin 0.3 mg/kg/day IP, all days tested) | thermal withdrawal time as % of per-operative baseline ([2]; lovastatin 0.3 mg/kg/day IP, days 14 and 21) | pain reduction, paw withdrawal latency to thermal radiant heat vs PBS vehicle [2, 5] | pain reduction, paw withdrawal latency to thermal radiant heat vs PBS vehicle ([2]; lovastatin 3 mg/kg/day IP, at day 14) | thermal withdrawal scores as % of baseline ([2]; low dose lovastatin group (100-fold decrease from 0.3 mg/kg/day), all testing days) |
| --- | --- | --- | --- | --- | --- | --- | --- | --- | --- | --- | --- | --- | --- | --- | --- | --- | --- | --- | --- |
| CC1=C(CC(=O)O)c2cc(F)ccc2/C1=C\c1ccc([S+](C)[O-])cc1 (stereo not shown) [sulindac] | effective at reducing pain | particularly effective | effective at reducing pain | particularly effective | – | – | – | – | – | – | – | – | – | – | – | – | – | – | – |
| CC[C@H](C)C(=O)O[C@H]1C[C@@H](C)C=C2C=C[C@H](C)[C@H](CC[C@@H]3C[C@@H](O)CC(=O)O3)[C@H]21 [lovastatin] | – | – | – | – | probably statistically equivalent | effective at reducing pain | able to reduce this pain behavioral response at all time points | effective at reducing pain | particularly effective | probably statistically equivalent to the vehicle control | steadily improved during the course of the study | statistically equivalent to the other two statin groups | effective at reducing pain | 68% | reduced this pain behavioral response at all days tested | 61% | effective at reducing pain | particularly effective | ~60% |
